Reference: patent publication US10613104B2, “Assay to determine anticoagulants in blood or blood plasma” (ZAFENA AB, priority 2014, dated 2020)

System: prothrombin time (PT) of normal plasma NKP
Test: Three wet-chemistry Owren PT methods (Simple Simon PT; 20, 10, 5 μL sample in 200 μL reagent) on normal plasma NKP with added anticoagulant
Type: biochemical
Experimental: Experimental work was performed with the commercially available ambient room temperature coagulation instrument, Simple Simon P T Zafena A B, Linköping, Sweden, with functions described in EP 1 636 595 B2. One instrument or reader was used for each PT-method. Alternatively, the same instrument could be used for all PT-methods.
The three instruments were used together standing next to one another on a laboratory bench in thermal equilibrium with the ambient room temperature of the laboratory.
The ambient room temperature in the laboratory where the work was done varied between 21° C. and 26° C.
The PT-reagent was the one delivered together with lot N223M of the Simple Simon PT product, a reagent of Owren-type that thus contains effective amounts of thromboplastin, fibrinogen and FV (the thromboplastin of rabbit brain origin and the fibrinogen and the FV of bovine blood plasma origin). Other Owren type reagents could also be used.
The reagent was in portions of 200 μL to which sample, citrated blood or citrated blood plasma, was added and mixed. The addition was by an end-to-end plastic capillary mounted at one end of a tubular body with a displacement mechanism in the other end, this to allow convenient mixing of sample and reagent. Such Mixxocaps with 10 μL capillaries are supplied with the Simple Simon PT product. To perform the experiments described, some Mixxocaps were fitted with 20 μL capillaries, or 5 μL capillaries instead of the 10 μL capillaries with which they were supplied by the manufacturer.
The ratios between the volume of blood or blood plasma to the volume of liquid reagent used in the experiments were 1:11, 1:21 and 1:41. Other ratios lying within the range of 1:5 and 1:100 or within the range of 1:2 and 1:200 could be used.
Anticoagulated normal plasma was the NKP product GHI-163 lot 10188, MediRox AB, Nyköping, Sweden.
It was further relevant that all three PT-methods were calibrated, according to the invention, to show INR 1.000 for unadulterated NKP, and INR 1.357 for the NKP 1:2. All primary INR values, the results that appeared on the instrument screens (one instrument or reader was used for each PT-method), were therefore transformed to the corrected/calibrated INRc by the formula A*INRexp(B) where a and b were selected to given NKP and NKP 1:2 their desired values, 1.000 and 1.357, respectively. The INR-value of the NKP 1:2 was calculated by the formula of Lindahl et al for the INR of corresponding to PT-activity of 50% (half of the 100% that equates to INR 1.000). Above the INR calibrated columns (INRc) there is an upper number and a lower number, these are the above mentioned A and B, respectively.
As deemed relevant the upper number is selected to make NKP 1:2 to show INRc 1.357.
Clinical levels of interest range from 50 to 1000 μg/L in blood plasma.
In the selected calibration INR 1.000 and INR 1.357 were assigned to NKP and NKP 1:2, respectively, which was the same relevant calibration as selected in Examples 1 and 3 above.

[1] = apixaban 50 μg/L in NKP plasma, from PT (s)
[2] = apixaban 50 μg/L in NKP plasma, from instrument INR
[3] = apixaban 100 μg/L in NKP plasma
[4] = apixaban 100 μg/L in NKP plasma, from PT (s)
[5] = apixaban 100 μg/L in NKP plasma, from instrument INR
[6] = apixaban 200 μg/L in NKP plasma
[7] = apixaban 200 μg/L in NKP plasma, from PT (s)
[8] = apixaban 200 μg/L in NKP plasma, from instrument INR
[9] = apixaban 300 μg/L in NKP plasma
[10] = apixaban 300 μg/L in NKP plasma, from PT (s)
[11] = apixaban 300 μg/L in NKP plasma, from instrument INR
[12] = apixaban 400 μg/L in NKP plasma
[13] = apixaban 400 μg/L in NKP plasma, from PT (s)
[14] = apixaban 400 μg/L in NKP plasma, from instrument INR
[15] = apixaban 500 μg/L in NKP plasma
[16] = apixaban 500 μg/L in NKP plasma, from PT (s)
[17] = apixaban 500 μg/L in NKP plasma, from instrument INR
[18] = apixaban 600 μg/L in NKP plasma
[19] = apixaban 600 μg/L in NKP plasma, from PT (s)
[20] = apixaban 600 μg/L in NKP plasma, from instrument INR
[21] = apixaban 800 μg/L in NKP plasma
[22] = apixaban 800 μg/L in NKP plasma, from PT (s)
[23] = apixaban 800 μg/L in NKP plasma, from instrument INR
[24] = apixaban 1000 μg/L in NKP plasma
[25] = apixaban 1000 μg/L in NKP plasma, from PT (s)
[26] = apixaban 1000 μg/L in NKP plasma, from instrument INR

COc1ccc(-n2nc(C(N)=O)c3c2C(=O)N(c2ccc(N4CCCCC4=O)cc2)CC3)cc1 [apixaban]
INR 5 μL sample (apixaban 50 μg/L in NKP plasma): 1.12 | INR 10 μL sample (apixaban 50 μg/L in NKP plasma): 1.18 | INR 20 μL sample (apixaban 50 μg/L in NKP plasma): 1.28 | PT (s) 5 μL sample (apixaban 50 μg/L in NKP plasma): 47.7 s | PT (s) 10 μL sample (apixaban 50 μg/L in NKP plasma): 39.1 s | PT (s) 20 μL sample (apixaban 50 μg/L in NKP plasma): 35.5 s | INRc 20 μL sample [1]: 1.23 | ΔINRc 10 μL − 5 μL [1]: 0.04 | ΔINRc 20 μL − 5 μL [1]: 0.19 | INRc 20 μL sample [2]: 1.30 | ΔINR 10 μL − 5 μL [2]: 0.07 | ΔINR 20 μL − 5 μL [2]: 0.24 | INR 5 μL sample [3]: 1.15 | INR 10 μL sample [3]: 1.27 | INR 20 μL sample [3]: 1.55 | PT (s) 5 μL sample [3]: 49.1 s | PT (s) 10 μL sample [3]: 41.5 s | PT (s) 20 μL sample [3]: 39.3 s | INRc 20 μL sample [4]: 1.61 | ΔINRc 10 μL − 5 μL [4]: 0.12 | ΔINRc 20 μL − 5 μL [4]: 0.53 | INRc 10 μL sample [5]: 1.24 | INRc 20 μL sample [5]: 1.67 | ΔINR 10 μL − 5 μL [5]: 0.15 | ΔINR 20 μL − 5 μL [5]: 0.58 | INR 5 μL sample [6]: 1.29 | INR 10 μL sample [6]: 1.53 | INR 20 μL sample [6]: 2.12 | PT (s) 5 μL sample [6]: 54.4 s | PT (s) 10 μL sample [6]: 47.9 s | PT (s) 20 μL sample [6]: 46.7 s | INRc 5 μL sample [7]: 1.20 | INRc 20 μL sample [7]: 2.53 | ΔINRc 10 μL − 5 μL [7]: 0.31 | INRc 5 μL sample [8]: 1.22 | INRc 10 μL sample [8]: 1.55 | INRc 20 μL sample [8]: 2.51 | ΔINR 10 μL − 5 μL [8]: 0.34 | ΔINR 20 μL − 5 μL [8]: 1.30 | INR 5 μL sample [9]: 1.44 | INR 10 μL sample [9]: 1.82 | INR 20 μL sample [9]: 2.82 | PT (s) 5 μL sample [9]: 60.6 s | PT (s) 10 μL sample [9]: 54.6 s | PT (s) 20 μL sample [9]: 54.8 s | INRc 5 μL sample [10]: 1.35 | INRc 10 μL sample [10]: 1.88 | INRc 20 μL sample [10]: 3.85 | ΔINRc 10 μL − 5 μL [10]: 0.53 | ΔINRc 20 μL − 5 μL [10]: 2.50 | INRc 5 μL sample [11]: 1.35 | INRc 10 μL sample [11]: 1.91 | INRc 20 μL sample [11]: 3.66 | ΔINR 10 μL − 5 μL [11]: 0.56 | ΔINR 20 μL − 5 μL [11]: 2.30 | INR 5 μL sample [12]: 1.58 | INR 20 μL sample [12]: 3.68 | PT (s) 5 μL sample [12]: 66.3 s | PT (s) 10 μL sample [12]: 62.3 s | PT (s) 20 μL sample [12]: 63.5 s | INRc 5 μL sample [13]: 1.48 | INRc 20 μL sample [13]: 5.66 | ΔINRc 10 μL − 5 μL [13]: 0.86 | ΔINRc 20 μL − 5 μL [13]: 4.18 | INRc 5 μL sample [14]: 1.48 | INRc 20 μL sample [14]: 5.18 | ΔINR 10 μL − 5 μL [14]: 0.87 | ΔINR 20 μL − 5 μL [14]: 3.70 | INR 5 μL sample [15]: 1.73 | INR 10 μL sample [15]: 2.37 | INR 20 μL sample [15]: 4.47 | PT (s) 5 μL sample [15]: 72.0 s | PT (s) 10 μL sample [15]: 67.0 s | PT (s) 20 μL sample [15]: 70.8 s | INRc 5 μL sample [16]: 1.62 | INRc 10 μL sample [16]: 2.64 | INRc 20 μL sample [16]: 7.54 | ΔINRc 10 μL − 5 μL [16]: 1.02 | ΔINRc 20 μL − 5 μL [16]: 5.92 | INRc 5 μL sample [17]: 1.62 | INRc 10 μL sample [17]: 2.63 | INRc 20 μL sample [17]: 6.69 | ΔINR 10 μL − 5 μL [17]: 1.02 | ΔINR 20 μL − 5 μL [17]: 5.07 | INR 5 μL sample [18]: 1.90 | INR 10 μL sample [18]: 2.70 | INR 20 μL sample [18]: 5.56 | PT (s) 5 μL sample [18]: 78.8 s | PT (s) 10 μL sample [18]: 73.9 s | PT (s) 20 μL sample [18]: 79.9 s | INRc 5 μL sample [19]: 1.78 | INRc 10 μL sample [19]: 3.10 | INRc 20 μL sample [19]: 10.35 | ΔINRc 10 μL − 5 μL [19]: 1.32 | ΔINRc 20 μL − 5 μL [19]: 8.57 | INRc 5 μL sample [20]: 1.77 | INRc 10 μL sample [20]: 3.08 | INRc 20 μL sample [20]: 8.91 | ΔINR 10 μL − 5 μL [20]: 1.31 | ΔINR 20 μL − 5 μL [20]: 7.14 | INR 5 μL sample [21]: 2.22 | INR 10 μL sample [21]: 3.35 | INR 20 μL sample [21]: 7.81 | PT (s) 5 μL sample [21]: 91.7 s | PT (s) 10 μL sample [21]: 87.2 s | PT (s) 20 μL sample [21]: 96.9 s | INRc 5 μL sample [22]: 2.09 | INRc 20 μL sample [22]: 17.18 | ΔINRc 10 μL − 5 μL [22]: 1.99 | INRc 5 μL sample [23]: 2.06 | INRc 20 μL sample [23]: 13.91 | ΔINR 10 μL − 5 μL [23]: 1.94 | ΔINR 20 μL − 5 μL [23]: 11.85 | INR 5 μL sample [24]: 2.67 | INR 20 μL sample [24]: 10.70 | PT (s) 5 μL sample [24]: 111.2 s | PT (s) 10 μL sample [24]: 109.3 s | PT (s) 20 μL sample [24]: 117.4 s | INRc 20 μL sample [25]: 28.43 | INRo [25]: 0.75 | ΔINRc 10 μL − 5 μL [25]: 3.37 | ΔINRc 20 μL − 5 μL [25]: 25.85 | INRc 20 μL sample [26]: 21.03 | INRo [26]: 0.78 | ΔINR 10 μL − 5 μL [26]: 3.12 | ΔINR 20 μL − 5 μL [26]: 18.56 | content at which the INRc-difference (20 μL minus 5 μL) reaches 0.5 (normal plasma NKP, linear part of the graph (FIG. 8, FIG. 2)): about 80 μg/L
